Test [1] is filed under the species Rattus norvegicus. The experiment in a line: Inhibition of rat recombinant geranylgeranyltransferase type I expressed in Escherichia coli assessed as residual enzyme activity for geranylgeranylation of RhoA at 50 uM incubated for 30 mins in presence of [3H]GGPP by scintillation counting assay relative to control.
The species entered for test [2] is Rattus norvegicus. The experiment in a line: Inhibition of rat recombinant geranylgeranyltransferase type I expressed in Escherichia coli assessed as residual enzyme activity for geranylgeranylation of K-Ras4B at 50 uM incubated for 30 mins in presence of [3H]GGPP by scintillation counting assay relative to control.

Consider `Cc1ccc([C@@H]2C[C@@H](Sc3ccc(Cl)cc3)[C@H](C(=O)O)CN2S(=O)(=O)c2ccccc2)cc1`, for which the Activity in test [1] amounted to 17.2%; in test [2], 78.3%. For `Cc1ccc(S(=O)(=O)N2C[C@@H](C(=O)O)[C@H](SCCc3ccccc3)C[C@H]2c2ccccc2F)cc1`, in that order: 3.1% and 3.4 to 6.8%. For `Cc1ccc(S(=O)(=O)N2C[C@@H](C(=O)O)[C@H](SCCc3ccccc3)C[C@H]2c2cccc(Cl)c2)cc1`, in that order: 3.7% and 4.8 to 9.2%. For `Cc1ccccc1S(=O)(=O)N1[C@@H](c2ccccc2)C(C(=O)O)=CC[C@H]1c1ccc(Cl)cc1`, in that order: 5.8% and 13.4%.

As to `Cc1ccc(S(=O)(=O)N2C[C@@H](C(=O)O)[C@H](SCc3ccc(Cl)cc3)C[C@H]2c2ccccc2)cc1`, the Activity in test [1] was 14.2%; in test [2], 23.7 to 24.8%. For `Cc1ccc([C@@H]2C[C@@H](Sc3ccc(Cl)cc3)[C@H](C(=O)O)CN2S(=O)(=O)c2ccccc2C)cc1` the same measures were -4.7 to 10.5% and 4 to 6%. Take `Cc1ccccc1S(=O)(=O)N1C[C@@H](C(=O)O)[C@H](SCc2ccccc2)C[C@H]1c1ccc(Cl)cc1`: the Activity in test [1] is 7.8%; in test [2], 8.7 to 12%. As for `Cc1ccc(S(=O)(=O)N2C[C@@H](C(=O)O)[C@H](SCCc3ccccc3)C[C@H]2c2ccc(Cl)cc2)cc1`, the Activity is 5.9% in test [1] and 15.1 to 20.8% in test [2]. For `Cc1ccccc1S(=O)(=O)N1[C@@H](c2cccc(Br)c2)C(C(=O)O)=CC[C@H]1c1ccc(Cl)cc1` the same measures were 8.8% and 10.6 to 19.2%. Consider `CCCCCS[C@@H]1C[C@@H](c2cccc(Br)c2)N(S(=O)(=O)c2ccc(C)cc2)C[C@H]1C(=O)O`, for which the Activity in test [1] is 10.8%; in test [2], 28.5 to 85.1%. Take `Cc1ccc([C@@H]2C[C@@H](SCCc3ccccc3)[C@H](C(=O)O)CN2S(=O)(=O)c2ccc(Cl)cc2)cc1`: the figures for the Activity in test [1] and in test [2] were 9.5% and 22.7 to 27%, respectively.

With `Cc1ccc([C@@H]2CC=C(C(=O)O)[C@H](c3cccc(Br)c3)N2S(=O)(=O)c2ccc(Cl)cc2)cc1`, the figures for the Activity in test [1] and in test [2] were 7.4% and 8.4 to 19.9%, respectively.

Consider `Cc1ccc([C@@H]2C[C@@H](SCc3ccc(Cl)cc3)[C@H](C(=O)O)CN2S(=O)(=O)c2ccc(Cl)cc2)cc1`, for which the Activity in test [1] was 3.3%; in test [2], 30.8 to 31.6%. For `Cc1ccccc1S(=O)(=O)N1[C@@H](c2ccc(Cl)cc2)C(C(=O)O)=C[C@H]1CC1CCCC1` the same measures were 9.1% and 23.7%. For `CCCCCC[C@@H]1[C@@H](Sc2ccc(C)cc2)[C@@H](C(=O)O)[C@H](c2ccc(Cl)c(Cl)c2)N1S(=O)(=O)c1ccc(C)cc1` the same measures were 9.2% and 21.3%.

With `Cc1ccccc1S(=O)(=O)N1C[C@@H](C(=O)O)[C@H](SCc2ccc(Cl)cc2)C[C@H]1c1ccc(Cl)cc1`, the results for the Activity in test [1] and in test [2] were 13% and 21.3 to 24.5%, respectively. For `CCCCS[C@@H]1C[C@@H](c2cccc(Cl)c2)N(S(=O)(=O)c2ccc(C)cc2)C[C@H]1C(=O)O` the same measures were -1.2% and 8.5 to 16.7%. For the molecule `Cc1ccc(S(=O)(=O)N2C[C@@H](C(=O)O)[C@H](Sc3ccc(Cl)cc3)C[C@H]2c2cccc(Br)c2)cc1`, the Activity fell in the range of 0.2 to 3.2% in test [1] and 20.4 to 22.8% in test [2]. For `COc1ccc([C@H]2C(C(=O)O)=C[C@@H](C(C)(C)C)N2S(=O)(=O)c2ccc(C)cc2)cc1OC` the same measures were 6.1% and 23.4%.

Consider `Cc1ccc(S(=O)(=O)N2C[C@@H](C(=O)O)[C@H](Sc3ccccc3)C[C@H]2c2ccccc2F)cc1`, for which the Activity in test [1] worked out at 8.1%; in test [2], 51%. For `CCC[C@@H]1[C@@H](SCCC(=O)OC(C)(C)C)[C@@H](C(=O)O)[C@H](c2cccc(F)c2)N1S(=O)(=O)c1ccc(C)cc1`, in that order: 7.8% and 20.2%. For `CCCCS[C@H]1[C@@H](C(=O)O)[C@H](c2cccc(F)c2)N(S(=O)(=O)c2ccc(C)cc2)[C@@H]1CCCC`, in that order: 7.1% and 23.5%. Take `COc1ccc([C@@H]2C[C@@H](SCCc3ccccc3)[C@H](C(=O)O)CN2S(=O)(=O)c2ccccc2)cc1`: the results for the Activity in test [1] and in test [2] were 9.6% and 24.1 to 28.3%, respectively.

Turning to `O=C(O)C1=CC[C@@H](c2ccc(Cl)cc2)N(S(=O)(=O)c2ccc(Cl)cc2)[C@H]1c1cccc(Br)c1`, the Activity in test [1] is 5%; in test [2], 8.6 to 17.3%. For `C=CCS[C@@H]1C[C@@H](c2cccc(Br)c2)N(S(=O)(=O)c2ccc(C)cc2)C[C@H]1C(=O)O` the same measures were 13.6% and 29.2 to 83.6%.

In the case of `Cc1ccc(S(=O)(=O)N2[C@@H](c3cccc(Cl)c3)C(C(=O)O)=CC[C@H]2c2cccc(Br)c2)cc1`, the Activity in test [1] was 7.9%; in test [2], 9.8 to 24.4%. For `C=CCS[C@@H]1C[C@@H](c2ccc(Cl)cc2)N(S(=O)(=O)c2ccccc2C)C[C@H]1C(=O)O`, in that order: 9.4% and 16.4 to 17.8%. For `COc1cccc([C@@H]2C[C@@H](SCCc3ccccc3)[C@H](C(=O)O)CN2S(=O)(=O)c2ccc(C)cc2)c1`, the Activity in test [1] is 11.4%; in test [2] it was 20.8 to 24.2%. For `C=CCS[C@H]1[C@@H](C(=O)O)[C@H](c2ccc(Cl)c(Cl)c2)N(S(=O)(=O)c2ccc(C)cc2)[C@@H]1CCCCCC` the same measures were 6.8% and 15.1%. For `Cc1ccc(S(=O)(=O)N2C[C@@H](C(=O)O)[C@H](SCc3ccccc3)C[C@H]2c2ccccc2F)cc1`, in that order: 8.1% and 12.8 to 15.7%. In the case of `Cc1ccc(S(=O)(=O)N2C[C@@H](C(=O)O)[C@H](SCc3ccc(Cl)cc3)C[C@H]2c2ccc(Cl)cc2)cc1`, the Activity in test [1] is 4.9%; in test [2] it was 15.5 to 18.1%. In the case of `Cc1ccc([C@@H]2C[C@@H](SCCc3ccccc3)[C@H](C(=O)O)CN2S(=O)(=O)c2ccccc2C)cc1`, the Activity was 5.3% in test [1] and 10.2 to 13.8% in test [2]. Regarding `CCOc1ccc([C@@H]2C[C@@H](Sc3ccc(Cl)cc3)[C@H](C(=O)O)CN2S(=O)(=O)c2ccc(C)cc2)cc1`, the Activity in test [1] stood at 2.6%; in test [2] it was 72.4%.

For the molecule `Cc1ccc(S(=O)(=O)N2[C@@H](c3cccc(Br)c3)C(C(=O)O)=CC[C@H]2c2cccc(Br)c2)cc1`, the Activity in test [1] is 3.7%; in test [2] it was 9.4 to 15.2%. For `CCCC[C@@H]1[C@@H](Sc2ccc(OC)cc2)[C@@H](C(=O)O)[C@H](c2cccc(F)c2)N1S(=O)(=O)c1ccc(C)cc1` the same measures were 3.5% and 27.4%.

Turning to `Cc1ccc(S(=O)(=O)N2C[C@@H](C(=O)O)[C@H](Sc3ccccc3)C[C@H]2c2cccc(Br)c2)cc1`, the Activity in test [1] came to 2.9%. For the molecule `C=CCS[C@H]1[C@@H](C(=O)O)[C@H](c2ccc(Cl)c(Cl)c2)N(S(=O)(=O)c2ccc(C)cc2)[C@@H]1CC1CCCC1`, the Activity in test [1] was found to be 8.6%; in test [2], 12.1%. Consider `CCOc1ccc([C@@H]2C[C@@H](SCCc3ccccc3)[C@H](C(=O)O)CN2S(=O)(=O)c2ccc(C)cc2)cc1`, for which the Activity was 14.5% in test [1] and 24.6 to 37.2% in test [2].

Take `Cc1ccc(S(=O)(=O)N2C[C@@H](C(=O)O)[C@H](SCC(C)C)C[C@H]2c2ccccc2)cc1`: the Activity in test [1] is 10.7%; in test [2], 26 to 85.1%. As for `Cc1ccccc1S(=O)(=O)N1[C@@H](c2ccccc2F)C(C(=O)O)=CC[C@H]1c1ccc(Cl)cc1`, the results for the Activity in test [1] and in test [2] were 4.1% and 8.4%, respectively. For `CC[C@@H]1[C@@H](Sc2ccc(OC)cc2)[C@@H](C(=O)O)[C@H](c2cccc(Cl)c2)N1S(=O)(=O)c1ccc(C)cc1` the same measures were 6.5% and 25.5%. For `COc1ccc([C@@H]2C[C@@H](Sc3ccc(Cl)cc3)[C@H](C(=O)O)CN2S(=O)(=O)c2ccccc2)cc1` the same measures were 13.4% and 88.8%. For `Cc1ccc([C@@H]2C[C@@H](Sc3ccc(Cl)cc3)[C@H](C(=O)O)CN2S(=O)(=O)c2ccc(Cl)cc2)cc1`, in that order: 3.3% and 42.3%. For the molecule `Cc1ccccc1S(=O)(=O)N1C[C@@H](C(=O)O)[C@H](Sc2ccccc2)C[C@H]1c1ccc(Cl)cc1`, the Activity in test [1] worked out at 7.8%; in test [2], 75.5%.

Take `CCS[C@@H]1C[C@@H](c2cccc(Cl)c2)N(S(=O)(=O)c2ccc(C)cc2)C[C@H]1C(=O)O`: the Activity in test [2] turned out to be 75.7%. The same measure, in the same setting: with `Cc1ccc(S(=O)(=O)N2C[C@@H](C(=O)O)[C@H](SCCC(C)C)C[C@H]2c2ccccc2)cc1` the figure was 90%; with `CCCCS[C@@H]1C[C@@H](c2ccc(OC)cc2)N(S(=O)(=O)c2ccccc2)C[C@H]1C(=O)O`, 83.1%; with `Cc1ccc(S(=O)(=O)N2[C@@H](c3cccc(Br)c3)C(C(=O)O)=CC[C@H]2c2ccc(Cl)cc2)cc1`, 56.6%.

Turning to `Cc1ccc([C@@H]2CC=C(C(=O)O)[C@H](c3cccc(F)c3)N2S(=O)(=O)c2ccc(Cl)cc2)cc1`, the Activity in test [2] worked out at 54.5%.

For the molecule `COC(=O)c1ccccc1S(=O)(=O)N1[C@@H](c2cccc(Cl)c2)C(C(=O)O)=CC[C@H]1c1ccc(C)cc1`, the Activity in test [2] turned out to be 56.2%. Consider `COc1ccc([C@@H]2C[C@@H](Sc3ccc(C)cc3)[C@H](C(=O)O)CN2S(=O)(=O)c2ccc(Cl)cc2)cc1`, for which, in test [2], the Activity was found to be 83.2%. The same measure, in the same setting: to `Cc1ccc([C@@H]2CC=C(C(=O)O)[C@H](c3ccc(Br)cc3)N2S(=O)(=O)c2ccc(Cl)cc2)cc1` belongs 69.5%; to `Cc1ccc(S(=O)(=O)N2[C@@H](c3ccc(C(C)(C)C)cc3)C(C(=O)O)=CC[C@H]2c2ccc3c(c2)OCO3)cc1`, 87.2%.

As for `Cc1ccc(S(=O)(=O)N2[C@@H](c3ccc(C(C)(C)C)cc3)C(C(=O)O)=CC[C@H]2c2ccc(C#N)cc2)cc1`, the Activity in test [2] stood at 87.7%. Still for that read-out and setting: to `CCOc1ccc([C@@H]2CC=C(C(=O)O)[C@H](c3ccc(Br)cc3)N2S(=O)(=O)c2ccc(C)cc2)cc1` belongs 79.4%.

Values taken from ChEMBL document CHEMBL4421722, “Inhibitors of protein prenyltransferases” (2013).
